Measurements reported in the supplement of paper PMC10949913.

Columns and labels:
Test in all cases: area under concentration-response curve (viability) (AUC (a.u.)); higher = less active
Settings in all cases: 48 h
[1] = test system: CU-ACC2
How it was run: (§1)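 After 48 h of treatment with 23 nL of each library compound at 11 concentrations, three adrenocortical carcinoma cell lines in 1,536-well plates (500–1,000 cells/well, 5 µL medium) were given CellTiter-Glo for 15 minutes at room temperature. Luminescence was then read and normalised per plate to vehicle and empty-well controls. AC50 and area under the curve were drawn from fitted concentration-response curves of inhibitory or non-responding classes only.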

[2] = test system: NCI-H295R
How it was run: as §1

[3] = test system: CU-ACC1
How it was run: as §1

Row | Structure (SMILES) | area under concentration-response curve [1] | area under concentration-response curve [2] | area under concentration-response curve [3]
1 | CC[C@@]1(O)C(=O)OCC/2=C1/C=C/3N(CC4=C(CCNC(C)C)C5=CC=CC=C5N=C34)C2=O | 611 | 654 | 538
2 | C[C@H]1C[C@H]2[C@@H]3CC\C4=C\C(=O)\C=C/[C@]4(C)[C@H]3C(=O)C[C@]2(C)[C@@]1(O)C(=O)CO | 618 | 488 | 511
3 | CCOCC(O)COc1ccc(NC(=O)CC[S+](C)C)cc1 (stereo not drawn) | 394 | 411 | 367
4 | Cc1nc2c([nH]1)-c1ccccc1N(C(=O)c1ccc(NC(=O)c3ccccc3-c3ccccc3)cc1)CC2 | 542 | 487 | 437
5 | COC1=CC=CC=C1C2=CC=CC(=C2)C/3=C(O)/C4=CC(=C(Cl)C=C4NC3=O)C#N | 589 | 562 | 542
6 | O=C1[O][Pt]2([NH]C3CCCCC3[NH]2)[O]C1=O (stereo not drawn) | 631 | 565 | 564
7 | CC/1=C(/C(CC(=O)N1)C2=CC=C(C=C2)C(F)(F)F)C(=O)NC3=C(F)C=C4[NH]N=CC4=C3 (stereo not drawn) | 560 | 557 | 477
8 | N#Cc1c(N(CC(=O)[O-])CC(=O)[O-])sc(C(=O)[O-])c1CC(=O)[O-] | 544 | 497 | 478
9 | NC1CCC(N[C@@H]2C[C@H]2c2ccccc2)CC1 (stereo partly drawn) | 487 | 458 | 409
10 | COc1cc(F)c(C(C)C)cc1-c1ccc(C(F)(F)F)cc1CN1C(=O)O[C@H](c2cc(C(F)(F)F)cc(C(F)(F)F)c2)[C@@H]1C | 505 | 428 | 421
11 | F\C1=C\N(C2CCCO2)C(=O)NC1=O (stereo not drawn) | 612 | 511 | 512
12 | CC(=O)O[C@H]1C[C@@H]2CC[C@@H]3[C@H](CC[C@@]4(C)[C@H]3C[C@H]([N+]3(C)CCCCC3)[C@@H]4OC(C)=O)[C@@]2(C)C[C@@H]1[N+]1(C)CCCCC1 | 584 | 505 | 501
13 | FC(F)(F)c1ccc(CNc2ccc(Cc3c[nH]c4ncc(Cl)cc34)cn2)cn1 | 630 | 582 | 555
14 | Cc1ccc(CN2CCNCC2)cc1NC(=O)CNc1ccc(F)c(F)c1 | 635 | 596 | 531
15 | C[S+](=O)([O-])OCCCCO[S+](C)(=O)[O-] | 514 | 507 | 463
16 | Cc1ccccc1C(C(=O)NC1CCCCC1)N(C(=O)Cn1ccnc1C)c1cccc(F)c1 (stereo not drawn) | 593 | 539 | 519
